Laboratory results published in PMC10318822, “Phase 1 dose-escalation study to evaluate the safety, tolerability, pharmacokinetics, and anti-tumor activity of FCN-159 in adults with neurofibromatosis type 1-related unresectable plexiform neurofibromas” (BMC Medicine, 2023).

Test system: adult patients with NF1-related PN
Experiment: Phase I dose-escalation: DLT, MTD, RP2D and drug-related TEAEs (CTCAE v5.0)
Procedure: This is a multicenter, open-label, single-arm, non-randomized, phase I dose-escalation trial to evaluate the safety, tolerability, pharmacokinetic (PK), and anti-tumor activity of orally administered FCN-159 in adult patients with NF1 (NCT04954001). Phase I commenced with dose escalation in adult patients following a standard 3 + 3 design (Supplementary Table S1) to determine the maximum tolerated dose (MTD) of FCN-159 administered daily under fasting conditions (defined as no food or drink 1 h before and 2 h after each dose) in 28-day cycles. Study drug was dispensed at the study site and patient adherence was monitored by the records of drug dispensation and return. Patients were on treatment until PD, death, patient's voluntary withdrawal from study treatment, or study termination. The study was followed for 2 years after the last patient in. The starting dose was 4 mg, escalating in cohorts of at least three evaluable patients at 6 mg, 8 mg, and 12 mg until the MTD was determined. The starting dose in this study was determined based on available data from a phase 1a, first-in-human study of FCN-159 in patients with advanced NRAS ^mut+ melanoma at the time of study design. […] Dose expansion at a likely RP2D level enrolled approximately six patients. The highest dose level with a dose-limiting toxicity (DLT) incidence rate ≤ 33% (0/3 or 1/6 patients) was to be considered the MTD. If patients experienced grade ≥ 3 and/or unacceptable toxic events that were considered as at least possibly related to the study treatment, the study treatment was discontinued and supportive treatment was given in accordance with local treatment routines. If the toxicity returned to grade ≤ 2 within 28 days after the occurrence, and there was no progression on patients’ conditions or the investigator believed that patients could benefit from the study treatment, the original dose could be maintained or reduced after discussion with medical monitor. After completion of the dose escalation part of the study, PK, efficacy, safety, and tolerability data were analyzed to select the RP2D.
Primary endpoints of the study were the DLT incidence rate, MTD, and RP2D. Secondary endpoints included other safety assessments, imaging tumor response (complete response [CR], PR, stable disease [SD], or progressive disease [PD]), and PK parameters of FCN-159. Adverse events were graded per CTCAE v5.0.
All patients underwent a complete medical history, physical examination, Eastern Cooperative Oncology Group (ECOG) assessment, and laboratory analysis of test results. Drug-related TEAEs, serious adverse events (SAEs), TEAEs of grade ≥ 3 toxicity, and TEAEs leading to drug discontinuation were reviewed on an ongoing basis. Efficacy was assessed by radiologic scans and clinical assessment. Tumor assessments per Response Evaluation in Neurofibromatosis Schwannomatosis criteria were performed by investigators using MRI volumetric analysis every 4 cycles within the first 2 years (± 7 days) and every 6 cycles after 2 years (± 14 days) until PD, death, patient's voluntary withdrawal from study treatment, or study termination. MRI sequences of […], T1- and T2-weighted sequences were chosen and the software of Extended Brilliance Workspace, SIGNA Premier and uExceed were used for MRI volumetric analysis. The same software was used for all tumor assessments at baseline and subsequent assessed timepoints of the same patient. Pain was assessed by an 11-point numerical rating scale (NRS-11).
The sample size for the dose-escalation study was estimated to be 24 based on the 3 + 3 method. Safety was analyzed in patients who received at least one dose of FCN-159 and had at least one safety assessment. DLT was assessed in the DLT analysis set, defined as patients who were enrolled in the dose-escalation study and met the DLT evaluation criteria.

Cn1c(=O)c(F)c(Nc2ccc(I)cc2F)c2c(=O)n(C3CC3)nc(-c3cccc(NS(=O)(=O)C4CC4)c3)c21 [FCN-159]
4 (100) n (%): Subjects with any drug-related TEAE (6 mg (N = 4))
1 (25.0) n (%): Drug-related TEAE: Folliculitis (6 mg (N = 4)) | Drug-related TEAE: Gamma-glutamyltransferase increased (6 mg (N = 4)) | Drug-related TEAE: Hypocalcemia (6 mg (N = 4)) | Drug-related TEAE: Immunoglobulins increased (6 mg (N = 4)) | Drug-related TEAE: Mitral valve incompetence (6 mg (N = 4)) | Drug-related TEAE: Oedema peripheral (6 mg (N = 4)) | Drug-related TEAE: Rash (6 mg (N = 4)) | Drug-related TEAE: Tricuspid valve incompetence (6 mg (N = 4)) | Drug-related TEAE: Urinary occult blood positive (6 mg (N = 4)) | Drug-related TEAE: Urinary tract infection (6 mg (N = 4)) | Drug-related TEAE: Visual acuity reduced (6 mg (N = 4)) | Drug-related TEAE: pH urine decreased (6 mg (N = 4))
1 (12.5) n (%): Drug-related TEAE: Abdominal pain (8 mg (N = 8)) | Drug-related TEAE: Acne pustular (8 mg (N = 8)) | Drug-related TEAE: Alanine aminotransferase increased (8 mg (N = 8)) | Drug-related TEAE: Albumin globulin ratio decreased (8 mg (N = 8)) | Drug-related TEAE: Alopecia (8 mg (N = 8)) | Drug-related TEAE: Anemia (8 mg (N = 8)) | Drug-related TEAE: Aortic dilatation (8 mg (N = 8)) | Drug-related TEAE: Blood lactate dehydrogenase increased (8 mg (N = 8)) | Drug-related TEAE: Blood urea increased (8 mg (N = 8)) | Drug-related TEAE: Breath odor (8 mg (N = 8)) | Drug-related TEAE: Constipation (8 mg (N = 8)) | Drug-related TEAE: Decreased appetite (8 mg (N = 8)) | Drug-related TEAE: Dermatitis acneiform (8 mg (N = 8)) | Drug-related TEAE: Diarrhea (8 mg (N = 8)) | Drug-related TEAE: Dyslipidemia (8 mg (N = 8)) | Drug-related TEAE: Ejection fraction decreased (8 mg (N = 8)) | Drug-related TEAE: Electrocardiogram QT prolonged (8 mg (N = 8)) | Drug-related TEAE: Epistaxis (8 mg (N = 8)) | Drug-related TEAE: Functional gastrointestinal disorder (8 mg (N = 8)) | Drug-related TEAE: Gingival pain (8 mg (N = 8)) | Drug-related TEAE: Hypertension (8 mg (N = 8)) | Drug-related TEAE: Hypoalbuminemia (8 mg (N = 8)) | Drug-related TEAE: Hypocalcemia (8 mg (N = 8)) | Drug-related TEAE: Hypophosphatemia (8 mg (N = 8)) | Drug-related TEAE: Hypoproteinemia (8 mg (N = 8)) | Drug-related TEAE: Immunoglobulins increased (8 mg (N = 8)) | Drug-related TEAE: Left atrial enlargement (8 mg (N = 8))
4 (50.0) n (%): Drug-related TEAE: Folliculitis (8 mg (N = 8))
2 (25.0) n (%): Drug-related TEAE: Blood bilirubin increased (8 mg (N = 8)) | Drug-related TEAE: Blood creatine phosphokinase increased (8 mg (N = 8)) | Drug-related TEAE: Drug eruption (8 mg (N = 8)) | Drug-related TEAE: Mitral valve incompetence (8 mg (N = 8))
2 (50.0) n (%): Drug-related TEAE: Drug eruption (6 mg (N = 4)) | Drug-related TEAE: Paronychia (6 mg (N = 4)) | Drug-related TEAE: Protein urine present (6 mg (N = 4)) | Drug-related TEAE: Specific gravity urine increased (6 mg (N = 4)) | Drug-related TEAE: Stomatitis (6 mg (N = 4)) | Drug-related TEAE: Total bile acids increased (6 mg (N = 4)) | Drug-related TEAE: Urobilinogen urine increased (6 mg (N = 4))
3 (37.5) n (%): Drug-related TEAE: Blood alkaline phosphatase increased (8 mg (N = 8))
0 n (%): Drug-related TEAE: Decreased appetite (6 mg (N = 4)) | Drug-related TEAE: Dermatitis acneiform (6 mg (N = 4)) | Drug-related TEAE: Diarrhea (6 mg (N = 4)) | Drug-related TEAE: Dyslipidemia (6 mg (N = 4)) | Drug-related TEAE: Ejection fraction decreased (6 mg (N = 4)) | Drug-related TEAE: Electrocardiogram QT prolonged (6 mg (N = 4)) | Drug-related TEAE: Electrocardiogram abnormal (6 mg (N = 4)) | Drug-related TEAE: Epistaxis (6 mg (N = 4)) | Drug-related TEAE: Functional gastrointestinal disorder (6 mg (N = 4)) | Drug-related TEAE: Gingival pain (6 mg (N = 4)) | Drug-related TEAE: Hyperlipidemia (6 mg (N = 4)) | Drug-related TEAE: Hypertension (6 mg (N = 4)) | Drug-related TEAE: Hypoalbuminemia (6 mg (N = 4)) | Drug-related TEAE: Hypophosphatemia (6 mg (N = 4)) | Drug-related TEAE: Hypoproteinemia (6 mg (N = 4)) | Drug-related TEAE: Impetigo (6 mg (N = 4)) | Drug-related TEAE: Left atrial enlargement (6 mg (N = 4)) | Drug-related TEAE: Lipoprotein abnormal (6 mg (N = 4)) | Drug-related TEAE: Malaise (6 mg (N = 4)) | Drug-related TEAE: Menstrual disorder (6 mg (N = 4)) | Drug-related TEAE: Mouth ulceration (6 mg (N = 4)) | Drug-related TEAE: Muscular weakness (6 mg (N = 4)) | Drug-related TEAE: Pain in extremity (6 mg (N = 4)) | Drug-related TEAE: Prealbumin decreased (6 mg (N = 4)) | Drug-related TEAE: Pruritus (6 mg (N = 4)) | Drug-related TEAE: QRS axis abnormal (6 mg (N = 4)) | Drug-related TEAE: Sinus arrhythmia (6 mg (N = 4)) | Drug-related TEAE: Sinus bradycardia (6 mg (N = 4)) | Drug-related TEAE: Sinusitis (6 mg (N = 4)) | Drug-related TEAE: Skin exfoliation (6 mg (N = 4)) | Drug-related TEAE: Supraventricular extrasystoles (6 mg (N = 4)) | Drug-related TEAE: Urinary sediment present (6 mg (N = 4)) | Drug-related TEAE: Urine ketone body present (6 mg (N = 4)) | Drug-related TEAE: Urticaria (6 mg (N = 4)) | Drug-related TEAE: Vision blurred (6 mg (N = 4)) | Drug-related TEAE: pH urine increased (6 mg (N = 4)) | Drug-related TEAE: Acne (8 mg (N = 8)) | Drug-related TEAE: Amylase increased (8 mg (N = 8)) | Drug-related TEAE: Aspartate aminotransferase increased (8 mg (N = 8)) | Drug-related TEAE: Asthenia (8 mg (N = 8)) | Drug-related TEAE: Beta globulin decreased (8 mg (N = 8)) | Drug-related TEAE: Beta globulin increased (8 mg (N = 8)) | Drug-related TEAE: Blood fibrinogen increased (8 mg (N = 8)) | Drug-related TEAE: Blood pressure increased (8 mg (N = 8)) | Drug-related TEAE: Blood uric acid increased (8 mg (N = 8)) | Drug-related TEAE: Capillary disorder (8 mg (N = 8)) | Drug-related TEAE: Electrocardiogram abnormal (8 mg (N = 8)) | Drug-related TEAE: Gamma-glutamyltransferase increased (8 mg (N = 8)) | Drug-related TEAE: Hyperlipidemia (8 mg (N = 8)) | Drug-related TEAE: Impetigo (8 mg (N = 8)) | Drug-related TEAE: Lipoprotein abnormal (8 mg (N = 8)) | Drug-related TEAE: Malaise (8 mg (N = 8)) | Drug-related TEAE: Menstrual disorder (8 mg (N = 8))
